Legend:
Experiment in all cases: relative viability (nuclei count vs DMSO), 5 days (fraction); higher = more cells survive
[1] = tested on: NCI-H2228
Procedure, shortened: (§1)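 Relative viability was taken as the ratio of nuclei in treated wells to nuclei in vehicle wells. Lung cancer cell lines in 1536-well plates received compounds by pin tool one day after seeding, either one drug alone or a fixed anchor-drug dose plus five library-drug doses (not always all listed) in √10 steps. Nuclei were counted on 4× images after 5 days of treatment, and values are medians of duplicate plates.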

[2] = tested on: ABC-1
Procedure, shortened: as §1

[3] = tested on: A549
Procedure, shortened: as §1

[4] = tested on: LOU-NH91
Procedure, shortened: as §1

[5] = tested on: NCI-H1755
Procedure, shortened: as §1

[6] = tested on: LK-2
Procedure, shortened: as §1

[7] = tested on: NCI-H1703
Procedure, shortened: as §1

[8] = tested on: Calu-6
Procedure, shortened: as §1

[9] = tested on: NCI-H1299
Procedure, shortened: as §1

[10] = tested on: EBC-1
Procedure, shortened: as §1

[11] = tested on: NCI-H1666
Procedure, shortened: as §1

[12] = tested on: IA-LM
Procedure, shortened: as §1

Compound: COCC1(CO)C(=O)C2CCN1CC2 (stereo not given) [PRIMA-1MET] + Cc1nc(NC(=O)N2CCC[C@H]2C(N)=O)sc1-c1ccnc(C(C)(C)C(F)(F)F)c1 [Alpelisib] (partner 2 µM)
- relative viability ([1]; first compound 0.2 µM): 1.06
- relative viability ([1]; first compound 0.6325 µM): 0.654
- relative viability ([1]; first compound 2 µM): 0.744
- relative viability ([1]; first compound 6.325 µM): 0.534
- relative viability ([1]; first compound 20 µM): 0.0746
- relative viability ([2]; first compound 0.2 µM): 1.07
- relative viability ([2]; first compound 0.6325 µM): 1.1
- relative viability ([2]; first compound 2 µM): 1.11
- relative viability ([2]; first compound 6.325 µM): 1.04
- relative viability ([2]; first compound 20 µM): 0.479
- relative viability ([3]; first compound 0.2 µM): 0.728
- relative viability ([3]; first compound 0.6325 µM): 0.803
- relative viability ([3]; first compound 2 µM): 0.861
- relative viability ([3]; first compound 6.325 µM): 0.881
- relative viability ([3]; first compound 20 µM): 0.593
- relative viability ([4]; first compound 0.2 µM): 0.78
- relative viability ([4]; first compound 0.6325 µM): 0.652
- relative viability ([4]; first compound 2 µM): 0.569
- relative viability ([4]; first compound 6.325 µM): 0.669
- relative viability ([4]; first compound 20 µM): 0.507
- relative viability ([5]; first compound 0.2 µM): 0.974
- relative viability ([5]; first compound 0.6325 µM): 0.891
- relative viability ([5]; first compound 2 µM): 0.864
- relative viability ([5]; first compound 6.325 µM): 0.952
- relative viability ([5]; first compound 20 µM): 0.892
- relative viability ([6]; first compound 0.2 µM): 1.22
- relative viability ([6]; first compound 0.6325 µM): 0.868
- relative viability ([6]; first compound 2 µM): 0.577
- relative viability ([6]; first compound 6.325 µM): 0.626
- relative viability ([6]; first compound 20 µM): 0.162
- relative viability ([7]; first compound 0.2 µM): 0.393
- relative viability ([7]; first compound 0.6325 µM): 0.37
- relative viability ([7]; first compound 2 µM): 0.318
- relative viability ([7]; first compound 6.325 µM): 0.436
- relative viability ([7]; first compound 20 µM): 0.0451
- relative viability ([8]; first compound 0.2 µM): 1.02
- relative viability ([8]; first compound 0.6325 µM): 0.941
- relative viability ([8]; first compound 2 µM): 0.859
- relative viability ([8]; first compound 6.325 µM): 1
- relative viability ([8]; first compound 20 µM): 0.856
- relative viability ([9]; first compound 0.2 µM): 1.07
- relative viability ([9]; first compound 0.6325 µM): 1.08
- relative viability ([9]; first compound 2 µM): 1.08
- relative viability ([9]; first compound 6.325 µM): 1.03
- relative viability ([9]; first compound 20 µM): 0.976
- relative viability ([10]; first compound 0.2 µM): 0.87
- relative viability ([10]; first compound 0.6325 µM): 0.921
- relative viability ([10]; first compound 2 µM): 0.83
- relative viability ([10]; first compound 6.325 µM): 0.757
- relative viability ([10]; first compound 20 µM): 0.666
- relative viability ([11]; first compound 0.2 µM): 1.1
- relative viability ([11]; first compound 0.6325 µM): 0.879
- relative viability ([11]; first compound 2 µM): 0.999
- relative viability ([11]; first compound 6.325 µM): 0.834
- relative viability ([11]; first compound 20 µM): 0.123
- relative viability ([12]; first compound 0.2 µM): 0.695
- relative viability ([12]; first compound 0.6325 µM): 0.863
- relative viability ([12]; first compound 2 µM): 0.726
- relative viability ([12]; first compound 6.325 µM): 1
- relative viability ([12]; first compound 20 µM): 0.813
